Source: PMC12519464, “Dual-Site Inhibition of SARS-CoV‑2 RNA-Dependent RNA Polymerase by Small Molecules Able to Block Viral Replication Identified through a Computer-Aided Drug Discovery Approach” (ACS Infectious Diseases, 2025)
Like-named read-outs stand apart in the source and are kept apart here.

Assays:
[1] = target: SARS-CoV-2 nsp12/7/8 (RTC) complex (Severe acute respiratory syndrome coronavirus 2, UniProt P0DTD1); assay: biochemical; assay type: biochemical
[2] = system: SARS-CoV-2 (BetaCov/Belgium/GHB-03021/2020); assay: microbe, parasite or virus in culture; settings: Severe acute respiratory syndrome coronavirus 2, Vero C1008, read-out: EC50: compound concentration required to inhibit SARS-CoV-2 replication by 50%
[3] = Compounds cytotoxicity in the Vero E6 cell line; settings: African green monkey, Vero E6 cells stably expressing GFP, with CP-100356 (P-gp inhibitor), 2 μM
[4] = system: SARS-CoV-2 (BetaCov/Belgium/GHB-03021/2020); assay: in vitro; settings: African green monkey
in vitro = settings: African green monkey
[5] = system: SARS-CoV-2 (BetaCov/Belgium/GHB-03021/2020)
SARS-CoV-2 = settings: cited from earlier work
SARS-CoV-2 RTC = SARS-CoV-2 RTC (Severe acute respiratory syndrome coronavirus 2, UniProt P0DTD1); assay type: biochemical; settings: competing against RNA or GTP substrates; Lineweaver-Burk plots
RNA substrate = assay: Microscale Thermophoresis/Spectral Shift binding assay with RNA substrate (Monolith X); settings: data not shown
SARS-CoV-2 minimal RTC = SARS-CoV-2 minimal RTC (Severe acute respiratory syndrome coronavirus 2, UniProt P0DTD1); assay type: binding
[6] = primer-extension PAGE assay, 150 nM RTC, 5% DMSO, 30 min preincubation at 37 °C, mean and SD of at least 3 independent experiments
[7] = read-out: IC50: compound concentration required to inhibit by 50% the SARS-CoV-2 RTC enzymatic activity
[8] = 500 µM compound, Microscale Thermophoresis, Fig. S3

Compound: CC(=O)O[C@@H]1CC[C@@]2(C)[C@@H](CC[C@]3(C)[C@@H]2C(=O)C=C2[C@@H]4[C@@H](C)[C@H](C)CC[C@]4(C)CC[C@]23C)[C@@]1(C)C(=O)O [AKBA, 3-O-Acetyl-11-Keto-Beta-Boswellic Acid]
- IC50 [1]: 4.98 ± 1.44 µM
- EC50 [2]: 4810 ± 2150 nM
- CC50 at 24 h [3]: > 100 µM
- selectivity ratio [4]: > 20.8

Compound: Cc1oc2c(C)c3oc(=O)c(CCC(=O)N4CCC(C(=O)O)(c5ccccc5)CC4)c(C)c3cc2c1-c1ccccc1 [Cmp_4, 4-phenyl-1-[3-(2,5,9-trimethyl-7-oxo-3-phenylfuro[3,2-g]chromen-6-yl)propanoyl]piperidine-4-carboxylic acid]
- IC50 [1, 6]: 8.21 ± 4.87 µM
- EC50 [2]: 2610 ± 180 nM
- CC50 at 24 h (in vitro): > 100 µM
- selectivity ratio [4]: > 38.4

Compound: CC(C)C[C@H](NC(=O)OCc1ccccc1)C(=O)N[C@@H](CC1CCNC1=O)C(O)S(=O)(=O)O (some centres unmarked) [GC376]
- CC50 (Vero E6 GFP): > 100 µM
- EC50 ([5]; read-out: EC50: compound concentration required to inhibit SARS-CoV-2 replication by 50%): 60 ± 30 nM

Compound: CC(C)C[C@H](NC(=O)OCc1ccccc1)C(=O)N[C@@H](C[C@@H]1CCNC1=O)C(O)S(=O)(=O)[O-].[Na+] (some centres unmarked) [GC376]
- SI: selective index, ratio of CC50/EC50 [5]: >5,882

Compound: C[C@@H]1CC[C@@]2(OC1)O[C@H]1C[C@H]3[C@@H]4CC=C5C[C@@H](O[C@@H]6O[C@H](CO)[C@@H](O)[C@H](O)[C@H]6O[C@@H]6O[C@@H](C)[C@H](O)[C@@H](O)[C@H]6O)CC[C@]5(C)[C@H]4CC[C@]3(C)[C@H]1[C@@H]2C [Prosapogenin A]
- IC50 [1, 7]: > 100 µM

Compound: CC1(C)CC[C@]2(C(=O)O[C@@H]3O[C@H](CO)[C@@H](O)[C@H](O)[C@H]3O)CC[C@]3(C)C(=CC[C@@H]4[C@@]5(C)CC[C@H](O[C@@H]6O[C@H](C(=O)O)[C@@H](O)[C@H](O)[C@H]6O[C@@H]6OC[C@@H](O)[C@H](O)[C@H]6O)C(C)(C)[C@@H]5CC[C@]43C)[C@@H]2C1 [Pseudoginsenoside Rt1]
- IC50 [1]: 49.3 ± 5.86 µM

Compound: CC(C)(O)[C@H]1CC[C@@](C)([C@H]2CC[C@]3(C)[C@@H]2[C@H](O)C[C@@H]2[C@@]4(C)CC[C@H](O)C(C)(C)[C@@H]4[C@@H](O[C@@H]4O[C@H](CO)[C@@H](O)[C@H](O)[C@H]4O)C[C@]23C)O1 [Pseudoginsenoside Rt5]
- IC50 [1, 7]: > 100 µM

Compound: C=C(C)[C@@H]1CC[C@]2(C(=O)O)CC[C@]3(C)[C@H](CC[C@@H]4[C@@]5(C)CC[C@H](O[C@@H]6OC[C@H](O)[C@H](O)[C@H]6O[C@@H]6O[C@@H](C)[C@H](O)[C@@H](O)[C@H]6O)[C@@](C)(CO)[C@@H]5CC[C@]43C)[C@@H]12 [Pulchinenoside A]
- IC50 [1, 7]: 24.7 ± 0.42 µM

Compound: CC1(C)CC[C@]2(C(=O)O)[C@H](O)C[C@]3(C)C(=CC[C@@H]4[C@@]5(C)CC[C@H](O)[C@@](C)(C=O)[C@@H]5CC[C@]43C)[C@@H]2C1 [Quillaic acid]
- IC50 [1]: 83.9 ± 9.31 µM

Compound: CO[C@H]1/C=C/O[C@@]2(C)Oc3c(C)c(O)c4c(O)c(c5c(nc6cc(C)ccn65)c4c3C2=O)NC(=O)/C(C)=C\C=C\[C@H](C)[C@H](O)[C@@H](C)[C@@H](O)[C@@H](C)[C@H](OC(C)=O)[C@@H]1C [Rifaximin, reference compound]
- IC50 [1, 6]: > 100 µM

Compound: O=C(O)c1c(Cl)c(Cl)c(Cl)c(Cl)c1-c1c2cc(I)c(=O)c(I)c-2oc2c(I)c(O)c(I)cc12 [Rose bengal]
- IC50 [1, 6]: 0.25 ± 0.0036 µM
- EC50 (SARS-CoV-2; ref previous studies (number not given; probably 25, Rubekina et al.), read-out: EC50, inhibition of SARS-CoV-2 replication): 0.5 µM
- EC50 [2]: 180 ± 20 nM
- mode of inhibition of SARS-CoV-2 RdRp (SARS-CoV-2 RTC): mixed model of inhibition
- interaction with RNA substrate (RNA substrate): no evidence of interaction
- CC50 (in vitro): > 100 µM
- selectivity ratio [4]: > 546

Compound: C[C@@H]1CC[C@]2(C(=O)O)CC[C@]3(C)C(=CC[C@@H]4[C@@]5(C)CC[C@H](O)[C@@](C)(CO)[C@@H]5CC[C@]43C)[C@@H]2[C@]1(C)O [Rotundic acid]
- IC50 [1, 6]: > 100 µM

Compound: COc1ccc2cc(S(=O)(=O)N[C@H](CC(=O)N[C@H](Cc3ccc(CN4[C@H](C)CCC[C@@H]4C)cc3)C(=O)N(C)C(C)C)c3ccc4c(c3)OCO4)ccc2c1 [SSR240612, reference compound]
- IC50 [1, 7]: 85.9 ± 4.35 µM

Compound: C[C@H]1O[C@@H](O[C@H]2CC[C@@]3(C)[C@@H](CC[C@]4(C)[C@@H]3C=CC3=C5CC(C)(C)CC[C@]5(CO)[C@H](O)C[C@]34C)[C@]2(C)CO)[C@H](O)[C@@H](O[C@@H]2O[C@H](CO)[C@@H](O)[C@H](O)[C@H]2O)[C@H]1O [Saikosaponin B2]
- IC50 [1, 7]: 54.6 ± 13.6 µM

Compound: C[C@H]1O[C@@H](O[C@H]2CC[C@@]3(C)[C@@H](CC[C@]4(C)[C@@H]3C=C[C@]35OC[C@@]6(CCC(C)(C)C[C@H]63)[C@H](O)C[C@]54C)[C@]2(C)CO)[C@H](O)[C@@H](O[C@@H]2O[C@H](CO)[C@@H](O)[C@H](O)[C@H]2O)[C@H]1O [Saikosaponin D]
- IC50 [1, 7]: > 100 µM

Compound: CC1(C)CC[C@]2(C(=O)O)CCC3=C([C@@H](CCl)C[C@@H]4[C@@]5(C)C[C@H](O)[C@H](O)[C@@](C)(C(=O)O)[C@@H]5CC[C@@]34C)[C@@H]2C1 [Senegenin]
- IC50 [1, 7]: > 100 µM

Compound: C[C@@H]1CC[C@@]2(OC1)O[C@H]1C[C@H]3[C@@H]4CC[C@@H]5C[C@@H](O)CC[C@]5(C)[C@H]4CC[C@]3(C)[C@H]1[C@@H]2C [Smilagenin, reference compound]
- IC50 [1, 7]: > 100 µM

Compound: CNc1cccc(NC(=O)N[C@@H]2N=C(c3ccccn3)c3ccccc3N(CC(=O)C(C)(C)C)C2=O)c1 [Sograzepide, reference compound]
- IC50 [1, 6]: > 100 µM

Compound: C=CC(=O)N1CCN(c2nc(=O)n(-c3c(C)ccnc3C(C)C)c3nc(-c4c(O)cccc4F)c(F)cc23)[C@@H](C)C1 [Sotorasib, reference compound]
- IC50 [1, 6]: 47 ± 10.6 µM

Compound: CN(C(=O)c1ccc(F)cc1C(F)(F)F)C1CCN(c2nnc(-c3ccnn3C)c3ccccc23)CC1 [Taladegib, reference compound]
- IC50 [1]: > 100 µM

Compound: Oc1cccc(-c2c3nc(c(-c4cccc(O)c4)c4ccc([nH]4)c(-c4cccc(O)c4)c4nc(c(-c5cccc(O)c5)c5ccc2[nH]5)CC4)C=C3)c1 [Temoporfin, reference compound]
- IC50 [1]: > 100 µM

Compound: O=C(O[C@@H]1Cc2c(O)cc(O)cc2O[C@@H]1c1cc(=O)c(O)c2c(O)c(O)cc([C@H]3Oc4cc(O)cc(O)c4C[C@H]3O)c2c1)c1cc(O)c(O)c(O)c1 [Theaflavin 3-gallate]
- IC50 [1, 7]: 19.8 ± 3.49 µM

Compound: C[C@H]1CC[C@]2(NC1)O[C@H]1C[C@H]3[C@@H]4CC[C@H]5C[C@@H](O)CC[C@]5(C)[C@H]4CC[C@]3(C)[C@H]1[C@@H]2C [Tomatidine]
- IC50 [1]: 51.4 ± 5.58 µM

Compound: C[C@@H]1CC[C@]2(C(=O)O)CC[C@]3(C)C(=CC[C@@H]4[C@@]5(C)C[C@@H](O)[C@H](O)C(C)(C)[C@@H]5CC[C@]43C)[C@@H]2[C@]1(C)O [Tormentic acid]
- IC50 [1, 7]: > 100 µM

Compound: O=C(c1ccccc1Cl)c1cccnc1-c1nnn(Cc2cc(C(F)(F)F)cc(C(F)(F)F)c2)c1-c1ccncc1 [Tradipitant, reference compound]
- IC50 [1, 7]: > 100 µM

Compound: Cc1cc(Nc2ncnc3ccc(NC4=NC(C)(C)CO4)cc23)ccc1Oc1ccn2ncnc2c1 [Tucatinib, reference compound]
- IC50 [1, 6]: > 100 µM

Compound: CC(C)Oc1ccc(-c2nn([C@@H](C)c3oc4ccc(F)cc4c(=O)c3-c3cccc(F)c3)c3ncnc(N)c23)cc1F [Umbralisib, reference compound]
- IC50 [1]: > 100 µM

Compound: C[C@H]1[C@H](C)CC[C@]2(C(=O)O)CC[C@]3(C)C(=CC[C@@H]4[C@@]5(C)CC[C@H](O)C(C)(C)[C@@H]5CC[C@]43C)[C@H]12 [Ursolic acid, reference compound]
- IC50 [1]: > 100 µM

Compound: C[C@H]1[C@H](C)CC[C@]2(C(=O)O)CC[C@]3(C)C(=CC[C@@H]4[C@@]5(C)CCC(=O)C(C)(C)[C@@H]5CC[C@]43C)[C@H]12 [Ursonic acid]
- IC50 [1]: 26.5 ± 12.6 µM

Compound: CC1(C)CCC(CN2CCN(c3ccc(C(=O)NS(=O)(=O)c4ccc(NCC5CCOCC5)c([N+](=O)[O-])c4)c(Oc4cnc5[nH]ccc5c4)c3)CC2)=C(c2ccc(Cl)cc2)C1 [Venetoclax]
- IC50 [1, 6]: 2.37 ± 0.42 µM
- EC50 (SARS-CoV-2; ref number not printed in the text (probably 27, Milani et al.), read-out: EC50, inhibition of SARS-CoV-2 replication in cell culture): 6 µM
- response amplitude (SARS-CoV-2 minimal RTC; [8]): 3.9
- signal-to-noise ratio (SARS-CoV-2 minimal RTC; [8]): 7.7
- binding check to SARS-CoV-2 minimal RTC (SARS-CoV-2 minimal RTC; single concentration of 500 μM of compound): specific binding
- EC50 [2]: 850 ± 80 nM
- mode of inhibition of SARS-CoV-2 RdRp (SARS-CoV-2 RTC): noncompetitive mode of inhibition
- CC50 (in vitro): > 100 µM
- selectivity ratio [4]: > 118

Compound: CC(C)(C)NC(=O)c1ccc(Oc2cc(F)c(CC(=O)O)cc2Cl)c(NS(=O)(=O)c2ccc(C3CC3)cc2Cl)c1 [Vidupiprant, reference compound]
- IC50 [1, 6]: 63.5 ± 24.3 µM

Compound: Cc1ccc(C(=O)NNC(=O)c2c(C)cccc2Cl)cc1C#Cc1cnc2ccccc2c1 [Vodobatinib, reference compound]
- IC50 [1, 6]: > 100 µM

Compound: CCOC(=O)N[C@@H]1CC[C@@H]2[C@@H](C1)C[C@H]1C(=O)O[C@H](C)[C@H]1[C@H]2/C=C/c1ccc(-c2cccc(F)c2)cn1 [Vorapaxar, reference compound]
- IC50 [1]: > 100 µM

Compound: CC1(C)[C@@H](O)CC[C@]2(C)[C@H]3CC=C4[C@@H]5C[C@@]6(C)C[C@H](OC6=O)[C@]5(C)CC[C@@]4(C)[C@]3(C)CC[C@@H]12 [Wilforlide A]
- IC50 [1, 7]: > 100 µM

Compound: Dryocrassin ABBA
- IC50 [1, 7]: 14.5 ± 5.46 µM
